“And” between values parts separate entries of the source, which are not always exact repeats. Identical values can stand only once. “Also recorded” adds a separate entry of the source.
Tests used:
[1] = system: patients with kidney disease; experiment: 24-hr urinary protein in patients with kidney disease before and after treatment with an iron chelator; format: in vivo, human
Experimental: Kidney disease was detected in patients by the presence of an abnormal amount of protein in the urine and/or an abnormal renal function. An abnormal amount of protein in urine is an amount of total protein greater than about 0.15 g/24 h measured by an adaptation of pyrogallol red-molydate method described by Fujita, Y., et al., Bunseki Kgaku 32:379-386 (1983), the teachings of which are hereby incorporated by reference in their entirety. Many patients, as part of their routine work up, had received kidney biopsies providing diagnosis of the nature of the kidney disease.
(§1) The diagnosis of the kidney disease was made by performing a kidney biopsy and included patients with membranoproliferative glomerulonephritis, membranous nephropathy, focal segmental sclerosis, IgA nephropathy, and diabetes as described above.
(§2) Patients with kidney disease who had abnormally high urinary protein were treated with the iron chelator deferiprone (1,2-dimethyl-3-hydroxypyrid-4-one) (L1). Deferiprone was synthesized as previously described capsule (Kontoghiorghes A. J., et al., Inorganica Chimica Acta 136:L11-L12 (1987), the teachings of which are hereby incorporated by reference in it entirety) and formulated into capsules containing 500 mg of deferiprone per capsule.
(§3) Urinary protein and serum creatinine was measured as described above before the administration of deferiprone. Patients were treated by oral ingestion of deferiprone in a range between about 30 mg and about 75 mg deferiprone per kilogram body weight per day 3 times a day. Urinary protein and serum creatinine was obtained 2-6 months after the administration of the iron chelator. […] Total urinary protein and serum creatinine measured before (e.g., pretreatment) and after the administration of deferiprone were compared using a paired t-test and p-value of <0.05 was considered significant.

[2] = system: patients with kidney disease; experiment: Serum creatinine in patients with kidney disease before and after treatment with an iron chelator; format: in vivo, human
Experimental: Creatinine clearance was calculated by the standard formula Cr=Ucr V/PCr where Cr=clearance of creatinine (ml/min); Ucr=urine creatinine (mg/dl), V=volume of urine, and PCr=plasma creatinine (mg/dl).
as §1, §2, §3

[3] = individual patients, before vs after 2-6 months oral deferiprone about 30-75 mg/kg per day
[4] = mean of N=14 patients, p < 0.001
[5] = patients with kidney disease, paired t-test, p<0.05 significant

Cc1c(O)c(=O)ccn1C [deferiprone, 1,2-dimethyl-3-hydroxypyrid-4-one]
24-Hr Urinary Protein Reduction % [1, 3]: 49% and 83% and 38% and 25% and 62% and 99% and 34% and 44% and 80% and 15% and 9% and 2% and 54% and 78%
24-Hr Urinary Protein Reduction Grams [1, 3]: 1.9 Grams and 1 Grams and 2.5 Grams and 0.7 Grams (2×) and 2.6 Grams and 5.95 Grams and 2 Grams and 2.1 Grams and 0.43 Grams and 0.5 Grams and 0.1 Grams and 1.4 Grams and 2.2 Grams
24-Hr Urinary Protein After ([1]; individual patients, oral deferiprone about 30-75 mg/kg per day, 3 times a day, measured 2-6 months after administration): 1.5 grams/24 hrs and 0.2 grams/24 hrs and 4 grams/24 hrs and 1.6 grams/24 hrs (2×) and 0.05 grams/24 hrs and 2.8 grams/24 hrs and 2.5 grams/24 hrs and 0.1 grams/24 hrs and 3.8 grams/24 hrs and 4.8 grams/24 hrs and 4.6 grams/24 hrs and 1.2 grams/24 hrs and 0.6 grams/24 hrs
24-Hr Urinary Protein After, Mean ([1]; mean of N=14 patients, before 3.91, 2-6 months oral deferiprone about 30-75 mg/kg per day, p < 0.001): 2.13 grams/24 hrs
24-Hr Urinary Protein Reduction %, Mean [1, 4]: 48%
24-Hr Urinary Protein Reduction Grams, Mean [1, 4]: 1.70 Grams
effect on total urinary protein [1, 5]: significantly decreased; also recorded: decrease
effect on serum creatinine [2, 5]: significantly decreased; also recorded: decrease
Creatinine After ([2]; serum, individual patients, 2-6 months after oral deferiprone about 30-75 mg/kg per day): 0.9 mg/dl (3×) and 1.3 mg/dl and 0.6 mg/dl and 0.5 mg/dl (2×) and 1.4 mg/dl and 0.7 mg/dl and 1.5 mg/dl and 0.8 mg/dl
Creatinine After, Mean ([2]; serum, mean of N=11 patients, before 1.10): 0.90 mg/dL
